Square brackets hold non-standard residues; d marks the D form. Ends that are not written are not given here. AEEA = NCCOCCOCC(=O)O
Key:
[1] = Vancomycin loading onto coated titanium bead (HCl elution, HPLC); type: binding; details: peptide/polymer + vancomycin mixture 30 mins 20° C., PBS washes, 100 mM HCl eluate by HPLC
Protocol: The experimental procedure used for the embodiments described above was as follows. […] All three components were mixed and then applied to the metal bead. […] All three components were mixed and then applied to the metal bead. […] The mixtures were applied to the metal beads and incubated for 30 mins at 20° C. with 700 rpm shaking. The beads were washed three times with 350 ul PBS. Beads were analyzed as follows: 200 ul of 100 mM HCl was added to each bead and incubated for 30 mins at 20° C. with 1,000 rpm shaking. The eluate from each bead was analyzed by HPLC using Phenomenex Luna 3 um column, 50×4.60 mm. Output was compared to a standard curve for vancomycin to determine the amount of vancomycin retained onto the metal bead.

[2] = system: Staphylococcus aureus strain MZ100; test: Tibia pin assay: coated titanium pins with vancomycin, bacterial cfu count; type: cell-based; set-up: key: —: “-” means no cfus; “many” means too many cfus to count, as they converge into one spot; details: 3 hours 37° C.
Description: In this assay, titanium pins were used as a model for tibia pins. Briefly, sterile pins were first coated with biofunctional composition (“SEQ ID NO:124-linker-SEQ ID NO:122”) comprising a substrate-binding peptide having binding specificity for vancomycin (“SEQ ID NO:124”) linked to a substrate-binding peptide having binding specificity for metal (“SEQ ID NO:122”), or a composition of the invention formed from compound comprising the biofunctional composition covalently coupled to fatty acid. The respective coatings also include vancomycin bound thereto. The coated pins were then placed in a silicone tube containing liquid bacterial growth medium and inoculated with bacteria. After incubation, the pins were removed, and then the liquid growth medium was serially diluted. The serial dilutions were inoculated onto bacterial culture plates, the plates were incubated, and counted on the plates were bacterial colonies.
In this assay, test samples (biofunctional composition (Table 6, “BC”) or compositions 133, 134, 135, 136 139) each were used to coat a pin by incubating the test sample (in a range of from about 0.8 mM to about 1 mM) with 2.5 μl of a 10 mM vancomycin solution and PBS to a final volume of 250 μl in a microtube (3 pins per tube) for 60 minutes at room temperature with occasional agitation. In a piece of silicone tubing (1.5 mm inner diameter, 50 mm long), added is tryptic soy broth+0.2% glucose, the coated pin, and 10^3 colony forming units (cfu) of Staphylococcus aureus strain MZ100 in either a 20 μl inoculum, 40 μl inoculum, or 60 μl inoculum. The tubing is clamped closed, and the tubing is incubated for 37° C. for 3 hours. After 3 hours, serial dilutions (1:10, 1:100, 1:1000) were made of the culture media from each tubing, and 10 μl of the undiluted culture medium and of each dilution were spotted onto the bacterial culture plate. The bacterial culture plate was incubated overnight at 37° C., and then the cfus were counted. The results, a composite of different assay runs, are shown in Table 6 (“-” means no cfus; “many” means too many cfus to count, as they converge into one spot; “NT” means not tested).

Substance	Vancomycin Load [1]	cfu 1:10 ([2]; inoculum volume 20 μl)	cfu 1:100 ([2]; inoculum volume 20 μl)	cfu 1:1000 ([2]; inoculum volume 20 μl)	cfu undiluted ([2]; inoculum volume 20 μl)	cfu 1:10 ([2]; inoculum volume 40 μl)	cfu 1:100 ([2]; inoculum volume 40 μl)	cfu 1:1000 ([2]; inoculum volume 40 μl)	cfu undiluted ([2]; inoculum volume 40 μl)	cfu 1:10 ([2]; inoculum volume 60 μl)	cfu 1:100 ([2]; inoculum volume 60 μl)	cfu 1:1000 ([2]; inoculum volume 60 μl)	cfu undiluted ([2]; inoculum volume 60 μl)
MA-AHx-SSCLIDIYGVCHN FDAY-miniPeg-miniPeg-YFRAFRKFVKPFKRAFKGSSK(Biotin) [SEQ ID NO:165]	1,700 pmol/cm2												
SSSCLIDMYGVCHNFDGAYDSSRG [Compound 134, AUD-AUD-AUD-AUD-SEQ ID NO:124-linker-SEQ ID NO:122]		—	—	—	—	6 cfu	1 cfu	—	many	17 cfu	5 cfu	—	many
SSSCLIDMYGVCHNFDGAYDSSRG-miniPeg-miniPeg-SSHRTNHKKNNPKKKNKTRGSSGK (SSSCLIDMYGVCHNFDGAYDSSRG[AEEA][AEEA]SSHRTNHKKNNPKKKNKTRGSSGK; not fully specified (bridges); printed as SSSCLIDMYGVCHNFDGAYDSSRG-miniPeg-miniPeg-SSHRTNHKKNNPKKKNKTRGSSGK; cysteine pairing not given here) [SEQ ID NO:163]	54 pmol/cm2												

— US20090246250A1, “COATING COMPOSITIONS HAVING IMPROVED PERFORMANCE” (priority 2008, published 2009)
